Reference: ChEMBL document CHEMBL3407349, “The discovery of Polo-like kinase 4 inhibitors: identification of (1R,2S).2-(3-((E).4-(((cis).2,6-dimethylmorpholino)methyl)styryl). 1H.indazol-6-yl)-5'-methoxyspiro[cyclopropane-1,3'-indolin]-2'-one (CFI-400945) as a potent, orally active antitumor agent” (J Med Chem, 2015)

How the values were obtained:
MDA-MB-468 [1] = experiment: Growth inhibition of human MDA-MB-468 cells after 5 days by SRB assay; format: functional
MCF7 = experiment: Growth inhibition of human MCF7 cells after 5 days by SRB assay; format: functional
HCC1954 = experiment: Growth inhibition of human HCC1954 cells after 5 days by SRB assay; format: functional; details: Homo sapiens, HCC1954, 120 h
MDA-MB-231 = experiment: Growth inhibition of human MDA-MB-231 cells after 5 days by SRB assay; format: functional
[2] = (§1) Growth inhibition of human HMEC cells after 5 days by SRB assay; format: cell-based; details: HMEC cells
Cytochrome P450 1A2 = molecular target: T1, Cytochrome P450 1A2 (Homo sapiens, UniProt P05177); experiment: Inhibition of CYP1A2 (unknown origin) by fluorescence assay; format: ADME
T1 sequence (P05177 whole entry): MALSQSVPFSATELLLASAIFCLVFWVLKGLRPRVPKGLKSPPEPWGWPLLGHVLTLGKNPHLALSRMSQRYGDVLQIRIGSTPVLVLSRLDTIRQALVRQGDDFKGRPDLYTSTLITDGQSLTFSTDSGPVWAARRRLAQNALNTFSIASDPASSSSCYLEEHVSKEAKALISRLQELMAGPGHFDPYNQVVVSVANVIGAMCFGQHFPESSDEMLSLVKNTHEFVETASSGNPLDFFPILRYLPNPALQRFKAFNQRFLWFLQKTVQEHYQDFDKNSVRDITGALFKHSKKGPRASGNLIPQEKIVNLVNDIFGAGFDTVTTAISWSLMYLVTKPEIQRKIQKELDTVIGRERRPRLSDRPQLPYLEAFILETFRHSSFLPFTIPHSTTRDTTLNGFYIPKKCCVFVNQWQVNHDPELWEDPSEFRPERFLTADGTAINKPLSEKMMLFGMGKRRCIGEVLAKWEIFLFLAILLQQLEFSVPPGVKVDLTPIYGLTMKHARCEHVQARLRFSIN

Cytochrome P450 2D6 = Cytochrome P450 2D6 (Homo sapiens, UniProt P10635); experiment: Inhibition of CYP2D6 (unknown origin) by fluorescence assay; format: ADME
Sequence of Cytochrome P450 2D6 (P10635 whole entry): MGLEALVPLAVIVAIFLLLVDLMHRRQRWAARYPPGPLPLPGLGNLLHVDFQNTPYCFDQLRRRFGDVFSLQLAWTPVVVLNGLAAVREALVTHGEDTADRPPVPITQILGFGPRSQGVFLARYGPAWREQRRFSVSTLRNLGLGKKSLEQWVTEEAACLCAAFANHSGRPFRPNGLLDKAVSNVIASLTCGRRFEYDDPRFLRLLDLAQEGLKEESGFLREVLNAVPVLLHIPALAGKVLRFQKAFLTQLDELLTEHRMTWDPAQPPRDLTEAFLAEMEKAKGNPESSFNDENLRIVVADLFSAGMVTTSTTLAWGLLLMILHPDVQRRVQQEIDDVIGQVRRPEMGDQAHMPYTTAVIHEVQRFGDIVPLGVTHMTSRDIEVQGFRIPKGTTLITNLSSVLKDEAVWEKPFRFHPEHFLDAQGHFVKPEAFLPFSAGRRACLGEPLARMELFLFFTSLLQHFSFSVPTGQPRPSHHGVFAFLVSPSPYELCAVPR

Cytochrome P450 2C9 = Cytochrome P450 2C9 (Homo sapiens, UniProt P11712); experiment: Inhibition of CYP2C9 (unknown origin) by fluorescence assay
Sequence of Cytochrome P450 2C9 (P11712 whole entry): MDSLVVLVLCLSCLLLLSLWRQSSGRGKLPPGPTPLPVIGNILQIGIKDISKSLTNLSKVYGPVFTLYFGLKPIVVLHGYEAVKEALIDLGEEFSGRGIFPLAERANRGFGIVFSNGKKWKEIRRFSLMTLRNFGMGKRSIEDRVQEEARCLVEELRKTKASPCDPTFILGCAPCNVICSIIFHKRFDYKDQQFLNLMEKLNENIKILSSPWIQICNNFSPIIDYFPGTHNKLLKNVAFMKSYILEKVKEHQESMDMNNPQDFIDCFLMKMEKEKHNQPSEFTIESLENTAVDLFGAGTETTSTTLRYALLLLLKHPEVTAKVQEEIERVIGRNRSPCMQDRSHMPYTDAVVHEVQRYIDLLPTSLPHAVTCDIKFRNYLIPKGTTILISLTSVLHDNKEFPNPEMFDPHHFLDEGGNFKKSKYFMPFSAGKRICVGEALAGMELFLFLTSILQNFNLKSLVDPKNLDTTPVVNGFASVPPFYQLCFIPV

Cytochrome P450 2C19 = Cytochrome P450 2C19 (Homo sapiens, UniProt P33261); experiment: Inhibition of CYP2C19 (unknown origin) by fluorescence assay
Sequence of Cytochrome P450 2C19 (P33261 whole entry): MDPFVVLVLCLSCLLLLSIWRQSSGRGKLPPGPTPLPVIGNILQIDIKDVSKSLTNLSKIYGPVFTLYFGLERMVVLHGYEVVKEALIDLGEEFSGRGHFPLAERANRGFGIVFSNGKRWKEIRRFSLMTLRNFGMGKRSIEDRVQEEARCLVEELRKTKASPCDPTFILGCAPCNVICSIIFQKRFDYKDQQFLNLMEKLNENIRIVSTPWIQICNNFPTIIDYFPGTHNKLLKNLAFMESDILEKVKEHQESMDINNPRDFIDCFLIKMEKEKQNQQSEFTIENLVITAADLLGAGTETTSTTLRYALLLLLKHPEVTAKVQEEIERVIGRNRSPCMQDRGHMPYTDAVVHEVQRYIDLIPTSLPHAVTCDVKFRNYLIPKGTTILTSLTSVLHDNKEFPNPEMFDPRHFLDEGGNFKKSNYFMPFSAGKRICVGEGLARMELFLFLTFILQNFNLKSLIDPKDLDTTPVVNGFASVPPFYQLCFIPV

Cytochrome P450 3A4 [3] = molecular target: T2, Cytochrome P450 3A4 (Homo sapiens, UniProt P08684); experiment: Inhibition of CYP3A4 (unknown origin) using DBF as substrate by fluorescence assay
T2 sequence (P08684 whole entry): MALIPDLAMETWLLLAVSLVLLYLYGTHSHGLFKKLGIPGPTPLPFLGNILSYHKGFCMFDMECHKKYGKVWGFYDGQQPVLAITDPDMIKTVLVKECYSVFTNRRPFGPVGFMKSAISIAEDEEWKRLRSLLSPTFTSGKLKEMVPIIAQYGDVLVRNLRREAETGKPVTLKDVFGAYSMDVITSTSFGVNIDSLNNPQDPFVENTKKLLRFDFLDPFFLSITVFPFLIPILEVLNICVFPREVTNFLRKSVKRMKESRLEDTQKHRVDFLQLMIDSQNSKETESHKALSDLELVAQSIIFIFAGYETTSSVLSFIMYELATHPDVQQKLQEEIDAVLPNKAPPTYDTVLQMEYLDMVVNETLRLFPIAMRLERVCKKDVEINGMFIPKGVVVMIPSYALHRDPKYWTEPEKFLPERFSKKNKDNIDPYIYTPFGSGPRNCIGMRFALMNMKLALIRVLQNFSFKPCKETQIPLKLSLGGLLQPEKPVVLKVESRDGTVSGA

Cytochrome P450 3A4 [4] = molecular target: T2, Cytochrome P450 3A4; experiment: Inhibition of CYP3A4 (unknown origin) using BFC as substrate by fluorescence assay
[5] = Half life in mouse liver microsomes; details: microsomes
[6] = Half life in rat liver microsomes; details: microsomes
[7] = Half life in dog liver microsomes; details: microsomes
[8] = Half life in human liver microsomes
[9] = Cmax in athymic CD1 nude mouse at 25 mg/kg, po by LC/MS/MS analysis; format: ADME, organism-based; parameters: dose 25 mg/kg, route oral; details: in vivo
[10] = AUC in athymic CD1 nude mouse at 25 mg/kg, po by LC/MS/MS analysis; format: ADME, organism-based; parameters: dose 25 mg/kg, route oral; details: plasma
[11] = Half life in Sprague-Dawley rat at 1 mg/kg, iv; format: ADME, organism-based; parameters: dose 1 mg/kg, route intravenous; details: in vivo
[12] = AUC(infinity) in Sprague-Dawley rat at 1 mg/kg, iv; format: ADME, organism-based; parameters: time infinity, dose 1 mg/kg, route intravenous; details: plasma
[13] = AUC(infinity) in Sprague-Dawley rat at 5 mg/kg, po; format: ADME, organism-based; parameters: dose 5 mg/kg, route oral, time infinity; details: plasma
[14] = Oral bioavailability in Sprague-Dawley rat at 5 mg/kg; format: ADME, organism-based; details: in vivo
[15] = Half life in beagle dog at 1 mg/kg, iv; format: ADME, organism-based, Canis lupus familiaris; parameters: dose 1 mg/kg, route intravenous; details: in vivo
[16] = AUC(infinity) in beagle dog at 1 mg/kg, iv; format: ADME, organism-based, Canis lupus familiaris; parameters: time infinity, dose 1 mg/kg, route intravenous; details: plasma
[17] = AUC(infinity) in beagle dog at 5 mg/kg, po; format: ADME, organism-based, Canis lupus familiaris; parameters: time infinity, dose 5 mg/kg, route oral; details: plasma
[18] = Oral bioavailability in beagle dog at 5 mg/kg; format: ADME, organism-based, Canis lupus familiaris; details: in vivo
[19] = Growth inhibition of human SKBR3 cells after 5 days by SRB assay; format: functional; details: SK-BR-3, 120 h
[20] = Growth inhibition of human CAL51 cells after 5 days by SRB assay; format: functional; details: CAL-51, 120 h
[21] = Growth inhibition of human BT20 cells after 5 days by SRB assay; format: functional; details: BT-20, 120 h
A549 [22] = experiment: Growth inhibition of human A549 cells after 5 days by SRB assay; format: functional; details: A549, 120 h
[23] = Growth inhibition of human OVCAR3 cells after 5 days by SRB assay; format: functional; details: OVCAR-3, 120 h
SW-620 = experiment: Growth inhibition of human SW620 cells after 5 days by SRB assay; format: functional; details: SW-620, 120 h
[24] = Growth inhibition of human COLO205 cells after 5 days by SRB assay; format: functional; details: COLO 205, 120 h
[25] = Growth inhibition of human HCT116 cells after 5 days by SRB assay; format: functional; details: HCT-116, 120 h
MDA-MB-468 [26] = experiment: Antitumor activity against human MDA-MB-468 cells xenografted in CB-17 SCID mouse assessed as tumor growth inhibition at 3 mg/kg, po qd administered for 21 days; format: functional; details: MDA-MB-468, 504 h, read-out: TGI
MDA-MB-468 [27] = experiment: Antitumor activity against human MDA-MB-468 cells xenografted in CB-17 SCID mouse assessed as tumor growth inhibition at 9.4 mg/kg, po qd administered for 21 days; format: functional; details: MDA-MB-468, 504 h, read-out: TGI
[28] = Antitumor activity against human SW620 cells xenografted in CB-17 SCID mouse assessed as tumor growth inhibition at 3 mg/kg, po qd administered for 21 days; format: functional; details: SW-620, 504 h, read-out: TGI
[29] = Antitumor activity against human SW620 cells xenografted in CB-17 SCID mouse assessed as tumor growth inhibition at 9.4 mg/kg, po qd administered for 21 days; format: functional; details: SW-620, 504 h, read-out: TGI
A549 [30] = experiment: Antitumor activity against human A549 cells xenografted in CB-17 SCID mouse assessed as tumor growth inhibition at 3 mg/kg, po qd administered for 21 days; format: functional; details: A549, 504 h, read-out: TGI
Mus musculus = experiment: Toxicity in CB-17 SCID mouse xenografted with human A549 cells assessed as death at 9.4 mg/kg, po qd administered for 21 days; format: organism-based; parameters: dose 9.4 mg/kg, route oral; details: in vivo, 504 h
[31] = Toxicity in po dosed athymic CD-1 nude mouse xenografted with human HCT116 cells administered qd 1-on/3-off schedule up to day 21; format: organism-based, HCT-116; details: CD-1 athymic nude, in vivo
[32] = Antitumor activity against human HCT116 cells xenografted in athymic CD-1 nude mouse assessed as tumor growth inhibition at MTD, po qd administered 1-on/3-off schedule up to day 21; format: functional, HCT-116
HMEC = experiment: as §1; format: cell-based; details: hmec, 120 h

Compound `COc1ccc2c(c1)[C@]1(C[C@H]1c1ccc3c(/C=C/c4ccc(CN5CCOCC5)cc4)n[nH]c3c1)C(=O)N2C` has a GI50 (MDA-MB-468 [1]; Homo sapiens, MDA-MB-468, 120 h) of less than 10 nM, a GI50 (MCF7; Homo sapiens, MCF7, 120 h) of less than 10 nM and a GI50 (HCC1954) of less than 10 nM. The GI50 (MDA-MB-231; Homo sapiens, MDA-MB-231, 120 h) was 20 µM, the GI50 at 120 h [2] was greater than 30 µM and the “inhibition (INH)” value (Cytochrome P450 1A2) was “Not Active”. The “inhibition (INH)” value (Cytochrome P450 2D6) was “Not Active”, the IC50 (Cytochrome P450 2C9) was 1000 nM and the IC50 (Cytochrome P450 2C19) was 1000 nM. For the same compound, the IC50 (Cytochrome P450 3A4 [3]) was 6 µM, the IC50 (Cytochrome P450 3A4 [4]) was 20 µM and the half-life [5] was 24 min. The half-life [6] was 6.4 min, the half-life [7] was 13 min and the half-life ([8]; microsomes) was 37 min. The Cmax [9] was 5900 ng/mL, the AUC [10] was 17000 ng·h/mL and the half-life [11] was 78 min. The AUC(0-inf) [12] was 553 ng·h/mL, the AUC(0-inf) [13] was 688 ng·h/mL and the bioavailability [14] was 25%. The half-life [15] was 180 min, the AUC(0-inf) [16] was 648 ng·h/mL and the AUC(0-inf) [17] was 1030 ng·h/mL. For the same compound, the bioavailability [18] was 32%, the GI50 [19] was 6.5 µM and the GI50 [20] was 110 nM. The GI50 [21] was 55 nM, the GI50 (A549 [22]) was 4 nM and the GI50 [23] was 7 nM. The GI50 (SW-620) was 600 nM, the GI50 [24] was 7 nM and the GI50 [25] was 5 nM. The inhibition in vivo at 3 mg/kg (MDA-MB-468 [26]) was 61%, the inhibition in vivo at 9.4 mg/kg (MDA-MB-468 [27]) was 96% and the inhibition in vivo at 3 mg/kg [28] was 47%. For the same compound, the inhibition in vivo at 9.4 mg/kg [29] was 77%, the inhibition in vivo at 3 mg/kg (A549 [30]) was 46% and the Activity (Mus musculus) was “Toxic”. The MTD at 21 days [31] was 39 mg/kg and the TGI [32] was 90%.

In the case of `CN(C)Cc1ccc(/C=C/c2n[nH]c3cc([C@@H]4C[C@@]45C(=O)Nc4ccccc45)ccc23)cc1`, the GI50 (MDA-MB-468 [1]) is reported as less than 1 nM, the GI50 (MCF7) is reported as 250 nM and the GI50 (MDA-MB-231) is reported as 0.82 µM. For the same compound, the GI50 (HMEC) was 19 µM, the “inhibition (INH)” value (Cytochrome P450 1A2) was “Not Active” and the “inhibition (INH)” value (Cytochrome P450 2D6) was “Not Active”. The IC50 (Cytochrome P450 3A4 [3]) was 10 µM, the IC50 (Cytochrome P450 3A4 [4]) was 5 µM and the half-life ([8]; liver microsomes) was greater than 60 min. For the same compound, the Cmax [9] was 110 ng/mL and the AUC [10] was 260 ng·h/mL.
